Measured values published in paper PMC5618418, “Pharmacokinetics of Jaspine B and Enhancement of Intestinal Absorption of Jaspine B in the Presence of Bile Acid in Rats” (Marine Drugs, 2017).
Where two headings read alike, the source gives them in different places.

Legend:
in vitro = in vitro ADME, rat
Description: For the measurement of the effect of TC on the tight junction of biological membranes, the permeability of 50 μM Lucifer yellow, a marker of paracellular permeation, was measured in the presence of TC (0, 0.1, 1, 10, 100 mM). Prior to the experiment, ileal segments from SD rats (about 20 cm) were placed in the chambers and were submerged in fresh, prewarmed (37 °C) HBSS for 15 min for acclimatization. The chambers were continuously bubbled with carbogen gas (5% CO2/ 95% O2) during the experiment. The experiments began by replacing the HBSS with HBSS containing 50 μM Lucifer yellow and various concentrations of TC on the apical side (A) and adding fresh HBSS to the basal side (B). Aliquots (400 μL) of media were withdrawn from the receiver compartment (B) after 0, 20, 40, 60, and 80 min, and the volume of liquid in the receiver compartment was replenished with fresh, prewarmed HBSS after each sampling. Aliquots (200 μL) of all samples were used for the determination of Lucifer yellow concentration. The fluorescence of Lucifer yellow in the samples was measured using a fluorescence spectrophotometer (Infinite 200 PRO, Tecan, Switzerland) with excitation at 425 nm and emission at 535 nm.
A to B and B to A permeability of Jaspine B was measured in the presence of TC and rat bile. One mL of HBSS containing 50 μM Jaspine B and 10 mM TC or 20% bile was added to the donor side and 1 mL of preheated fresh HBSS was added to the receiver side. Aliquots (400 μL) of media were withdrawn at 0, 20, 40, 60, and 80 min from the receiver compartment as described above. Aliquots (50 μL) of all samples were stored at −80 °C until analysis.
Aliquots (50 μL) of all samples were added to 250 μL of acetonitrile containing 0.5 ng/mL of berberine. After vortexing for 10 min and centrifugation at 13,200 rpm for 5 min, 2 μL of the supernatant was injected directly into the LC-MS/MS system.
The apparent permeability (Papp) of the drug was calculated by dividing the initial drug transport rate (dQ/dt, pmol/min) by the initial drug concentration in the donor compartment of the insert (Co) multiplied by the surface area of the insert (A, cm^2): (3) Papp=dQ/dt×1/ACo

[1] = Tissue distribution after intravenous administration; assay type: in vivo; details: rat
Description: Jaspine B was dissolved in a vehicle containing DMSO: PEG400: saline (2:4:4, v/v/v) and IV-injected via the femoral vein at a dose of 10 mg/kg (vehicle volume, 1 mL/kg). Blood samples were collected from the abdominal artery and animals were euthanized at 0.5 h and 12 h after IV dosing. The blood, brain, liver, kidney, heart, and spleen were immediately excised, gently washed with ice-cold saline, and weighed. The tissue samples were homogenized with 9 volumes of saline. Aliquots of 50 μL of tissue homogenates and plasma were stored at −80 °C until the analysis.
Aliquots (50 μL) of plasma and tissue homogenates were added to 250 μL of acetonitrile containing 0.5 ng/mL of berberine. After vortexing for 10 min and centrifugation at 13,200 rpm for 5 min, an aliquot (2 μL) of the supernatant was injected directly into the LC-MS/MS system. For the analysis of plasma and tissue concentration, the standard curves with a range of 5–1000 ng/mL in the blank plasma and 10% bank tissue homogenates from brain, liver, kidney, heart, and spleen were prepared, and the concentrations of quality control (QC) samples of respective plasma and tissue homogenates were 25 and 750 ng/mL. The recovery of these spiked QC samples were in the range of 73.6–112.2% in all tissue homogenates. Intra- and inter-day precision and accuracy had coefficients of variance of less than 15%.

MDA-MB-435 = test system: MDA-MB-435; parameters: method as in doi:10.5352/JLS.2016.26.12.1392; details: MDA-MB-435 melanoma; cited from earlier work
[2] = Metabolic stability in rat liver microsomes; assay type: in vitro ADME; details: for percentage remaining: 37 °C
Description: Jaspine B (1 μM) was reconstituted in 100 mM potassium phosphate buffer (pH 7.4) containing 0.25 mg of RLMs and was pre-incubated for 5 min at 37 °C. The reaction was initiated by adding an NADPH-generating system (1.3 mM β-NADP, 3.3 mM glucose-6-phosphate, 3.3 mM MgCl2, and 1.0 unit/mL glucose-6-phosphate dehydrogenase) and then incubated (final volume 100 μL) for 0, 15, 30, and 60 min at 37 °C in a shaking water bath. The reaction was stopped by placing the incubation tubes on ice and adding 200 μL of ice-cold acetonitrile containing 0.5 ng/mL of berberine. After vortexing for 10 min and centrifugation at 13,200 rpm for 5 min, 2 μL of the supernatant was injected directly into the LC-MS/MS system.

[3] = Sprague-Dawley (SD), brain, IV 10 mg/kg, read-out: T/P ratio, brain
[4] = Sprague-Dawley (SD), kidney, IV 10 mg/kg, read-out: T/P ratio, kidney
[5] = Sprague-Dawley (SD), liver, IV 10 mg/kg, read-out: T/P ratio, liver

permeability change (in vitro): increased the permeability
Papp at 80 min, 50 μM (in vitro; Sprague-Dawley, rat): 0.11 ×10⁻⁶ cm/s
increase of secretory (B to A) permeability (in vitro; Sprague-Dawley, rat, 80 min, 50 μM): approximately 5 fold
Kp at 0.5 h [1, 3]: 6.2
Kp at 12 h [1, 3]: 1.8
Kp at 0.5 h ([1]; Sprague-Dawley (SD), heart, IV 10 mg/kg, read-out: T/P ratio, heart): 14.4
Kp at 0.5 h [1, 4]: 11.1
Kp at 12 h [1, 4]: 4.7
Kp at 0.5 h [1, 5]: 2.3
Kp at 12 h [1, 5]: 1.2
Kp at 0.5 h ([1]; Sprague-Dawley (SD), spleen, IV 10 mg/kg, read-out: T/P ratio, spleen): 18.5
Kp at 12 h ([1]; Sprague-Dawley, brain, kidney, heart, spleen, 10 mg/kg, single IV administration, read-out: T/P ratios in brain, kidney, heart and spleen): 2 to 4
Kp at 12 h ([1]; Sprague-Dawley, heart, IV 10 mg/kg, read-out: T/P ratio, heart): 3.2
Kp at 12 h ([1]; Sprague-Dawley, spleen, IV 10 mg/kg, read-out: T/P ratio, spleen): 3.9
percentage remaining ([2]; 1 μM, rat liver microsomes, NADPH-generating system, 30 min): 59.8%
percentage remaining ([2]; 1 μM, rat liver microsomes, NADPH-generating system, 60 min): 20.4%
degraded ([2]; 1 h incubation with rat liver microsomes): 80%
half-life at 1 μM ([2]; pH 7.4, 1 μM, rat liver microsomes, NADPH-generating system, read-out: degradation half-life (T1/2)): 24 min
Compound: CCCCCCCCCCCCCC[C@@H]1OC[C@H](N)[C@@H]1O [Jaspine B]
IC50 (MDA-MB-435): 2600 nM
